Measured values taken from the supplement of paper PMC11208160.

Test: recombinant UMI read abundance after kanamycin selection (control-corrected) (log10(CPM+1)); higher = more efficient recombination; extreme values may be limits of the assay; sequences stand for … in AGTGCAGAGAAAATCGGCCAGTTTTCTCTGCCTGCAGTCCGCATGCCGTGGGACCCCTTGGGTTCTAACCTGTTGCCTAGATTTATGCAGCGGACTGCCTTTCTCCCAAAGTGATAAACCGG…AGGTTGGTTTCACT; site = the 11-nt donor
How it was run: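 Values, expressed as log10(CPM+1), derive from recombinant UMI counts converted to CPM, averaged across replicates and scaled by control-derived factors. Plating was with IPTG (0.07 mM) plus kanamycin or unselected, two replicates each. The screen pooled donor and donor-binding-loop pairs for the IS621 bridge recombinase in Escherichia coli.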
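Note: IS621 bridge recombinase in Escherichia coli cells against a fixed T5 target plasmid.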

Row | Sequence | recombinant UMI read abundance (log10)
1 | TATGCGGCATGGACCGGTTTTCCCGGTAATCCGTATTTGCT (site TTTGCGGCTAG) | 0.00802
2 | TATGTAACATGGACCGGTTTTCCCGGTAATCCGTATTTGAC (site GTACCGTCTAA) | 0.0137
3 | TATGTCCCATGGACCGGTTTTCCCGGTAATCCGTATTTGGA (site TATGTCCCTTC) | 0.00458
4 | TATTCCCCATGGACCGGTTTTCCCGGTAATCCGTATTTGTA (site TATTCCCCTTA) | 0.0102
5 | TATTCCCCATGGACCGGTTTTCCCGGTAATCCGTATTTGTA (site TCTTCCCCTTA) | 0.207
6 | TATTCCCCATGGACCGGTTTTCCCGGTAATCCGTATTTGTA (site TGTTCCCCTTA) | 0.254
7 | TATTCCCCATGGACCGGTTTTCCCGGTAATCCGTATTTGTA (site TTTTCCCCTTA) | 0.0134
8 | TATTCGGCATGGACCGGTTTTCCCGGTAATCCGTATTTGTG (site TATTAGGCTCA) | 0.0202
9 | TATTCGGCATGGACCGGTTTTCCCGGTAATCCGTATTTGTG (site TATTCGGCTCA) | 0.131
10 | TATTCGGCATGGACCGGTTTTCCCGGTAATCCGTATTTGTG (site TATTGGGCTCA) | 0.00845
11 | TATTCGGCATGGACCGGTTTTCCCGGTAATCCGTATTTGTG (site TATTTGGCTCA) | 0.0132
12 | TATTGCACATGGACCGGTTTTCCCGGTAATCCGTATTTGGT (site TATTGCACTAC) | 0.029
13 | TATTTGGCATGGACCGGTTTTCCCGGTAATCCGTATTTGCG (site TATTTGGCTCA) | 0.0189
14 | TATTTGGCATGGACCGGTTTTCCCGGTAATCCGTATTTGCG (site TATTTGGCTCC) | 0.0115
15 | TATTTGGCATGGACCGGTTTTCCCGGTAATCCGTATTTGCG (site TATTTGGCTCG) | 0.0194
16 | TATTTGGCATGGACCGGTTTTCCCGGTAATCCGTATTTGCG (site TATTTGGCTCT) | 0.0118
17 | TATTTGGCATGGACCGGTTTTCCCGGTAATCCGTATTTGTC (site TATTTGGCTAA) | 0.0189
18 | TATTTGGCATGGACCGGTTTTCCCGGTAATCCGTATTTGTC (site TATTTGGCTCA) | 0.00726
19 | TATTTGGCATGGACCGGTTTTCCCGGTAATCCGTATTTGTC (site TATTTGGCTGA) | 0
20 | TATTTGGCATGGACCGGTTTTCCCGGTAATCCGTATTTGTC (site TATTTGGCTTA) | 0.00596
21 | TATTTGGCATGGACCGGTTTTCCCGGTAATCCGTATTTGTG (site AATTTGGCTCA) | 0.0279
22 | TATTTGGCATGGACCGGTTTTCCCGGTAATCCGTATTTGTG (site CATTTGGCTCA) | 0.0142
23 | TATTTGGCATGGACCGGTTTTCCCGGTAATCCGTATTTGTG (site GATTTGGCTCA) | 0.026

Row | Sequence | recombinant UMI read abundance (log10)
24 | TATTTGGCATGGACCGGTTTTCCCGGTAATCCGTATTTGTG (site TAATTGGCTCA) | 0.0238
25 | TATTTGGCATGGACCGGTTTTCCCGGTAATCCGTATTTGTG (site TACTTGGCTCA) | 0.00946
26 | TATTTGGCATGGACCGGTTTTCCCGGTAATCCGTATTTGTG (site TAGTTGGCTCA) | 0.00343
27 | TATTTGGCATGGACCGGTTTTCCCGGTAATCCGTATTTGTG (site TATATGGCTCA) | 0.00476
28 | TATTTGGCATGGACCGGTTTTCCCGGTAATCCGTATTTGTG (site TATCTGGCTCA) | 0.00736
29 | TATTTGGCATGGACCGGTTTTCCCGGTAATCCGTATTTGTG (site TATGTGGCTCA) | 0.0139
30 | TATTTGGCATGGACCGGTTTTCCCGGTAATCCGTATTTGTG (site TATTAGGCTCA) | 0.00968
31 | TATTTGGCATGGACCGGTTTTCCCGGTAATCCGTATTTGTG (site TATTCGGCTCA) | 0.0142
32 | TATTTGGCATGGACCGGTTTTCCCGGTAATCCGTATTTGTG (site TATTGGGCTCA) | 0.00686
33 | TATTTGGCATGGACCGGTTTTCCCGGTAATCCGTATTTGTG (site TATTTAGCTCA) | 0.0189
34 | TATTTGGCATGGACCGGTTTTCCCGGTAATCCGTATTTGTG (site TATTTCGCTCA) | 0.00607
35 | TATTTGGCATGGACCGGTTTTCCCGGTAATCCGTATTTGTG (site TATTTGACTCA) | 0.0103
36 | TATTTGGCATGGACCGGTTTTCCCGGTAATCCGTATTTGTG (site TATTTGCCTCA) | 0.00864
37 | TATTTGGCATGGACCGGTTTTCCCGGTAATCCGTATTTGTG (site TATTTGGCTAA) | 0.0123
38 | TATTTGGCATGGACCGGTTTTCCCGGTAATCCGTATTTGTG (site TATTTGGCTCA) | 0.0246
39 | TATTTGGCATGGACCGGTTTTCCCGGTAATCCGTATTTGTG (site TATTTGGCTCC) | 0.0133
40 | TATTTGGCATGGACCGGTTTTCCCGGTAATCCGTATTTGTG (site TATTTGGCTCG) | 0.00904
41 | TATTTGGCATGGACCGGTTTTCCCGGTAATCCGTATTTGTG (site TATTTGGCTCT) | 0.0103
42 | TATTTGGCATGGACCGGTTTTCCCGGTAATCCGTATTTGTG (site TATTTGGCTGA) | 0
43 | TATTTGGCATGGACCGGTTTTCCCGGTAATCCGTATTTGTG (site TATTTGGCTTA) | 0.0236
44 | TATTTGGCATGGACCGGTTTTCCCGGTAATCCGTATTTGTG (site TATTTGTCTCA) | 0.0606
45 | TATTTGGCATGGACCGGTTTTCCCGGTAATCCGTATTTGTG (site TATTTTGCTCA) | 0.0154
46 | TATTTGGCATGGACCGGTTTTCCCGGTAATCCGTATTTGTG (site TCTTTGGCTCA) | 0.00921

Row | Sequence | recombinant UMI read abundance (log10)
47 | TATTTGGCATGGACCGGTTTTCCCGGTAATCCGTATTTGTG (site TGTTTGGCTCA) | 0.00811
48 | TATTTGGCATGGACCGGTTTTCCCGGTAATCCGTATTTGTG (site TTTTTGGCTCA) | 0.0282
49 | TCAAAGACATGGACCGGTTTTCCCGGTAATCCGTATTTGCG (site TCAAAGACTCG) | 1.9
50 | TCAAAGACATGGACCGGTTTTCCCGGTAATCCGTATTTGCG (site TCACAGACTCG) | 0.546
51 | TCAAAGACATGGACCGGTTTTCCCGGTAATCCGTATTTGCG (site TCAGAGACTCG) | 0.87
52 | TCAAAGACATGGACCGGTTTTCCCGGTAATCCGTATTTGCG (site TCATAGACTCG) | 0.773
53 | TCAACCGCATGGACCGGTTTTCCCGGTAATCCGTATTTGCG (site TCAACCGCTCG) | 0
54 | TCAACCGCATGGACCGGTTTTCCCGGTAATCCGTATTTGCG (site TCCACCGCTCG) | 0
55 | TCAACCGCATGGACCGGTTTTCCCGGTAATCCGTATTTGCG (site TCGACCGCTCG) | 0.00292
56 | TCAACCGCATGGACCGGTTTTCCCGGTAATCCGTATTTGCG (site TCTACCGCTCG) | 0
57 | TCAACGGCATGGACCGGTTTTCCCGGTAATCCGTATTTGCC (site TCAACGGCTGG) | 0.143
58 | TCAAGCACATGGACCGGTTTTCCCGGTAATCCGTATTTGAT (site TCAAGCACTAT) | 1.94
59 | TCAAGTCCATGGACCGGTTTTCCCGGTAATCCGTATTTGTA (site TAAAGTCCTTA) | 0.314
60 | TCAAGTCCATGGACCGGTTTTCCCGGTAATCCGTATTTGTA (site TCAAGTCCTTA) | 1.01
61 | TCAAGTCCATGGACCGGTTTTCCCGGTAATCCGTATTTGTA (site TGAAGTCCTTA) | 0.226
62 | TCAAGTCCATGGACCGGTTTTCCCGGTAATCCGTATTTGTA (site TTAAGTCCTTA) | 0.0663
63 | TCAATGACATGGACCGGTTTTCCCGGTAATCCGTATTTGGT (site TCAATGACTAC) | 0.953
64 | TCACACCCATGGACCGGTTTTCCCGGTAATCCGTATTTGCC (site TCACACCCTGG) | 0.92
65 | TCACAGACATGGACCGGTTTTCCCGGTAATCCGTATTTGCG (site TCAAAGACTCG) | 0.308
66 | TCACAGACATGGACCGGTTTTCCCGGTAATCCGTATTTGCG (site TCACAGACTCG) | 2.16
67 | TCACAGACATGGACCGGTTTTCCCGGTAATCCGTATTTGCG (site TCAGAGACTCG) | 0.267
68 | TCACAGACATGGACCGGTTTTCCCGGTAATCCGTATTTGCG (site TCATAGACTCG) | 0.29
